In ChEMBL document CHEMBL5584239, “Discovery of novel quinoline scaffold selective estrogen receptor degraders (SERDs) for treatment of ER positive breast cancer with enhanced antiproliferative bioactivity through immunogenic cell death (ICD) effects” (Eur J Med Chem, 2024):
The source made the active and inactive calls. No cut-off for these calls is given here.

How the values were obtained:
MCF7 [1] = assay: Antiproliferative activity against human MCF7 cells incubated for 5 days by MTT assay; assay type: functional, cell-based; conditions: MCF7, 120 h
Ishikawa = assay: Antiproliferative activity against human Ishikawa cells at 20 uM incubated for 3 days by MTT assay relative to control; assay type: functional; conditions: 72 h, time 3 day
[2] = biological target: T1, Estrogen receptor (Homo sapiens) (UniProt P03372); assay: Induction of estrogen receptor degradation in human MCF7 cells incubated for 24 hrs by Western blot analysis; assay type: cell-based; conditions: dose 0.001-10 µM
T1 sequence (whole entry): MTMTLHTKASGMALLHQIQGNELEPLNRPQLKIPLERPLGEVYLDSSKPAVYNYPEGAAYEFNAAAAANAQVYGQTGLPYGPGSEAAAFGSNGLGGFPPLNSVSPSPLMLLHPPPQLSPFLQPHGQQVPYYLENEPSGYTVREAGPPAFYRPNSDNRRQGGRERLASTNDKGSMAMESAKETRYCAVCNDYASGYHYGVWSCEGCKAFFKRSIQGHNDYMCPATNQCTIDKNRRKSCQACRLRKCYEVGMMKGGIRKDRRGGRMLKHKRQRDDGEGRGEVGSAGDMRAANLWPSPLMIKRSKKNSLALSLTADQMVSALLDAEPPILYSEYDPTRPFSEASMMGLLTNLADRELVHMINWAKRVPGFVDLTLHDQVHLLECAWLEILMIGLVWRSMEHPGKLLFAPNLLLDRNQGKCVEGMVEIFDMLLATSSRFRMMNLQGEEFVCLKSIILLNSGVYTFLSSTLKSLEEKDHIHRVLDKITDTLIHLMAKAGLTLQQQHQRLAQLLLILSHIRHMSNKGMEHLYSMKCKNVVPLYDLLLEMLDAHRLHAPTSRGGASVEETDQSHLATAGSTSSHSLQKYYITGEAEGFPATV

[3] = biological target: T1, Estrogen receptor (Homo sapiens); assay: Induction of estrogen receptor degradation in estradiol-stimulated human MCF7 cells assessed as decrease in PGR mRNA level incubated for 24 hrs by RT-qPCR analysis; assay type: cell-based; conditions: dose 1-10 µM
[4] = biological target: T1, Estrogen receptor (Homo sapiens); assay: Induction of estrogen receptor degradation in estradiol-stimulated human MCF7 cells assessed as decrease in TFF1 mRNA level incubated for 24 hrs by RT-qPCR analysis; assay type: cell-based; conditions: dose 1-10 µM
[5] = Half life in rat at 5 mg/kg, iv measured for 1 to 24 hrs by LC-MS analysis; assay type: ADME, organism-based; conditions: in vivo, time 1-24 hrs
[6] = Cmax in rat at 5 mg/kg, iv measured for 1 to 24 hrs by LC-MS analysis; assay type: ADME, organism-based; conditions: in vivo, time 1-24 hrs
[7] = C0 in rat at 5 mg/kg, iv measured for 1 to 24 hrs by LC-MS analysis; assay type: ADME, organism-based; conditions: in vivo, time 1-24 hrs
[8] = AUC (0 to t) in rat at 5 mg/kg, iv measured for 1 to 24 hrs by LC-MS analysis; assay type: ADME, organism-based; conditions: in vivo, time 1-24 hrs
[9] = MRT (0 to infinity) in rat at 5 mg/kg, iv measured for 1 to 24 hrs by LC-MS analysis; assay type: ADME, organism-based; conditions: in vivo, time 1-24 hrs
[10] = Half life in rat at 20 mg/kg, po measured for 1 to 24 hrs by LC-MS analysis; assay type: ADME, organism-based; conditions: in vivo, time 1-24 hrs
[11] = Tmax in rat at 20 mg/kg, po measured for 1 to 24 hrs by LC-MS analysis; assay type: ADME, organism-based; conditions: in vivo, time 1-24 hrs
[12] = AUC (0 to t) in rat at 20 mg/kg, po measured for 1 to 24 hrs by LC-MS analysis; assay type: ADME, organism-based; conditions: in vivo, time 1-24 hrs
[13] = MRT (0 to t) in rat at 20 mg/kg, po measured for 1 to 24 hrs by LC-MS analysis; assay type: ADME, organism-based; conditions: in vivo, time 1-24 hrs
MCF7 [14] = assay: Synergistic antiproliferative activity against human MCF7 cells at 0.1 to 10000 nM incubated for 5 days in presence of Ribociclib by MTT assay; assay type: functional, cell-based; conditions: dose 0.1-10000 nM, time 5.0 day
MCF7 [15] = assay: Induction of ROS production in human MCF7 cells measured after 6 to 24 hrs by flow cytometry; assay type: functional, cell-based; conditions: time 6-24 hrs
MCF7 [16] = assay: Induction of endoplasmic reticulum stress effect in human MCF7 cells assessed as change in pEIF-2alpha level at 10 uM incubated for 3 to 24 hrs by Western blot analysis; assay type: functional, cell-based; conditions: time 3-24 hrs
MCF7 [17] = assay: Induction of endoplasmic reticulum stress effect in human MCF7 cells assessed as change in calnexin level at 10 uM incubated for 24 hrs by immunofluorescence based analysis; assay type: functional, cell-based
MCF7 [18] = assay: Induction of immunogenic cell death in human MCF7 cells assessed as HMGB1 release from nucleus at 10 uM by FITC staining based flow cytometry; assay type: functional
MCF7 [19] = assay: Antitumor activity against human MCF7 cells xenografted in nude mouse model at 60 mg/kg, po administered daily via gavage for 30 days in presence of ribociclib; assay type: functional, organism-based; conditions: time 30.0 day
[20] = Toxicity in nude mouse model xenografted with human MCF7 cells assessed as morphological change in heart at 60 mg/kg, po administered daily via gavage for 30 days by H and E staining based analysis; assay type: organism-based; conditions: in vivo, 720 h, time 30 day
[21] = Toxicity in nude mouse model xenografted with human MCF7 cells assessed as morphological change in spleen at 60 mg/kg, po administered daily via gavage for 30 days by H and E staining based analysis; assay type: organism-based; conditions: in vivo, 720 h, time 30 day
[22] = Toxicity in nude mouse model xenografted with human MCF7 cells assessed as morphological change in kidney at 60 mg/kg, po administered daily via gavage for 30 days by H and E staining based analysis; assay type: organism-based; conditions: in vivo, 720 h, time 30 day
MCF7 [23] = assay: Antitumor activity against human MCF7 cells xenografted in nude mouse model assessed as reduction in PR level at 60 mg/kg, po administered daily via gavage for 30 days in presence of ribociclib by IHC analysis; assay type: functional, organism-based; conditions: time 30.0 day

- IC50 (MCF7 [1]): 150 nM
- Activity [2]: Dose-Dependent Effect
- Activity [3]: Dose-Dependent Effect
- Activity [4]: Dose-Dependent Effect
- half-life [5]: 51.8 min
- Cmax [6]: 10400 ng/mL
- C0 [7]: 31300 ng/mL
- AUC(0-t) [8]: 3050 ng·h/mL
- MRT inf [9]: 7.56 min
- half-life [10]: 191 min
- Tmax [11]: 15 min
- AUC(0-t) [12]: 628 ng·h/mL
- MRT last [13]: 131 min
SMILES: CCc1ccccc1C(=O)c1cnc2cc(O)ccc2c1Oc1ccc(/C=C/C(=O)O)cc1
- inhibition at 20 µM (Ishikawa): 14%
- Activity (MCF7 [14]): Active
- Activity (MCF7 [15]): inactive
- Activity (MCF7 [16]): Active
- Activity (MCF7 [17]): Active
- Activity (MCF7 [18]): Active
- Activity (MCF7 [19]): Active
- Activity [20]: Non-Toxic
- Activity [21]: Non-Toxic
- Activity [22]: Non-Toxic
- Activity (MCF7 [23]): Active
